Assay results from ChEMBL document CHEMBL3867463, “Cytotoxic lanostanes from fruits of Garcinia wallichii Choisy (Guttiferae)” (Bioorg Med Chem Lett, 2016).

Assays:
[1] = Cytotoxicity against human colon cancer cells by SRB method; type: functional; details: Cancer cell lines, read-out: ED50 (the source's name)
[2] = Cytotoxicity against human A549 cells by SRB method; type: functional; details: read-out: ED50 (the source's name)
[3] = Cytotoxicity against rat ASK cells by SRB method; type: functional; details: read-out: ED50 (the source's name)
[4] = Cytotoxicity against human HT-29 cells by SRB method; type: functional; details: read-out: ED50 (the source's name)
[5] = Cytotoxicity against human HEK293 cells by SRB method; type: toxicity, cell-based; details: read-out: ED50 (the source's name)
[6] = Cytotoxicity against human MCF7 cells by SRB method; type: functional; details: read-out: ED50 (the source's name)
[7] = Cytotoxicity against human KB cells by SRB method; type: functional; details: read-out: ED50 (the source's name)
[8] = Cytotoxicity against mouse P388 cells by SRB method; type: functional; details: read-out: ED50 (the source's name)

| SMILES | EC50 [1] [µM] | EC50 [2] [µM] | EC50 [3] [µM] | EC50 [4] [µM] | CC50 [5] [µM] | EC50 [6] [µM] | EC50 [7] [µM] | EC50 [8] [µM] |
| --- | --- | --- | --- | --- | --- | --- | --- | --- |
| C/C(=C\C=C\[C@@H](C)[C@H]1CC[C@@]2(C)[C@@H]3CC[C@H]4C(C)(C)C(=O)CC[C@]4(C)[C@@]3(O)CC[C@]12C)C(=O)O | > 50 | > 50 | > 50 | > 50 | > 50 | > 50 | > 50 | > 50 |
| COC(=O)/C(C)=C/C=C/[C@@H](C)[C@H]1CC[C@@]2(C)[C@@H]3CC[C@H]4C(C)(C)[C@]5(O)CC[C@]4(CO5)[C@@]3(O)CC[C@]12C | > 50 | > 50 | > 50 | > 50 | > 50 | > 50 | > 50 | > 50 |
| C/C(=C\C=C\[C@@H](C)[C@H]1CC[C@@]2(C)[C@@H]3CC[C@H]4C(C)(C)[C@]5(O)CC[C@]4(CO5)[C@@]3(O)CC[C@]12C)C(=O)O | 4.73 | 5.69 | 7.63 | 5.39 | 6.89 | 6.19 | 4.79 | 3.91 |
| C/C(=C\CC[C@@H](C)[C@H]1CC[C@@]2(C)[C@@H]3CC[C@H]4C(C)(C)[C@@H](O)CC[C@]4(C)[C@@]3(O)CC[C@]12C)C(=O)O | > 50 | 35.1 | > 50 | 23.7 | > 50 | > 50 | 29.9 | 24.1 |
| COC(=O)/C(C)=C/C=C/[C@@H](C)[C@H]1CC[C@@]2(C)[C@@H]3CC[C@H]4C(C)(C)C(=O)CC[C@]4(C)C3=CC[C@]12C | > 50 | > 50 | > 50 | > 50 | > 50 | > 50 | > 50 | > 50 |
| C/C(=C\CC[C@@H](C)[C@H]1CC[C@@]2(C)[C@@H]3CC[C@H]4C(C)(C)C(=O)CC[C@]4(C)[C@@]3(O)CC[C@]12C)C(=O)O | > 50 | > 50 | > 50 | > 50 | > 50 | > 50 | > 50 | > 50 |
| Cc1c2ccncc2c(C)c2c1[nH]c1ccccc12 [ELLIPTECINE] | 2.19 | 1.26 | 2.31 | 2.43 | 2.03 | 2.11 | 2.03 | 2.15 |
